The source of these data is patent US12590130B2, “Bipartite molecules and uses thereof in treating diseases associated with abnormal protein aggregates” (ACADEMIA SINICA, priority 2014, dated 2026).

The subject of test [1] is 109QmHtt. The test is described as follows: Western blot of RIPA-soluble and -insoluble fractions of Neuro2a lysates. The test is classed as cell-based. To be noted: peptide-treated samples. The protocol:
FIG. 4. Testing the ability of therapeutic peptides to decrease mHtt aggregation in Neuro2a cells overexpressing mHtt. Panel A: Filter trap assays and corresponding quantitation of cells (panel B) treated as indicated at 8 hours (T1), 24 hours (T2), or both (T1+2) after transfection with the 109QmHtt construct. […] Panel C: Western blots and quantitation (panel D) of RIPA-soluble (sol) and -insoluble (ins) fractions of Neuro2a cells overexpressing 25QHtt or 109QmHtt and treated as indicated. […] Panel E: Western blot of the 109QmHtt in cells treated as indicated. Note that MG132 blocked the effect of 8R10Q peptide with respect to decreasing insoluble 109QmHtt. Panel F: Quantitation of ratio of 109QmHtt in cells treated MG132 (+) over DMSO (−) in relationship to peptides. Statistical analysis conducted with one way ANOVA, *<0.05, **<0.01, ***<0.001, ns: not significant.
For further characterization, Neuro2a lysates were separated into the RIPA-soluble (sol) and insoluble (ins) fractions ([…]). 8R10Q peptide decreased the level of mHtt in both the soluble and insoluble fractions as compared with water, 8R, or the scrambled (s8R10Q) control (FIG. 4, panel D). […]
Background: In western blotting, separated proteins are transferred to a membrane and probed.

For test [2], the system named is R6/2 transgenic mice. The test is described as follows: Neuropathology of R6/2 transgenic mice. The test is classed as in vivo, mouse. The source says: FIG. 7. Amelioration of neuronal damage of 13 week-old R6/2 mice by 8R10Q peptide. Panel A: Micrographs of the Nissl stain sections of cortex (CTX) of WT and R6/2 mice. The cortex and its thickness are highlighted by the dashed lines and red solid lines, respectively. Panel B: Quantitation of the cortical thickness. Note the decrease in cortical thickness in R6/2 mice which was reversed by the 8R10Q. […]: Micrographs (panel D) and (panel F) show the corresponding quantitation of the Nissl stained sections of the cortex and striatum, respectively. Note the decrease in the number of neurons, which was reversed by 8R10Q. N=3/group, each bar represents the average of 5 sections. Statistical analysis performed with one way ANOVA, *p<0.05; ***p<0.001, ns: not significant.
FIG. 8. Decrease in mHtt aggregates and glial pathology in 13-week-old R6/2 mice by 8R10Q peptide treatment. Panel A: Micrographs and corresponding quantitation (panel B) of the immunostained sections of cortex (CTX) and striatum with EM48 antibody. The brown dots show the mHtt aggregates. The left subpanels of panel B show the quantitative data with respect to the total area occupied by the aggregates, and the right, the intensity of individual aggregates. Panel C: Photographs of the immunofluorescent-stained sections of the cortex of R6/2 mice with anti-GFAP antibody. […] Panel E: Micrographs of the immunostained sections of the cortex (CTX) and striatum of WT and R6/2 mice with anti-Iba1 antibody. […] N=3/group. Each bar represented an average of 15 sections/mouse group. Statistics were performed with Student's t test for panels B and D, but with one way ANOVA, *p<0.05; **p<0.01; ***p<0.001, ns: not significant.
To correlate the beneficial effect with the aggregates of mHtt, immunohistochemistry was performed to calculate the areas occupied by the aggregates per unit area (150 μm^2). The method was selected because the frequent clustering of the aggregates into conglomerates rendered an accurate count of the aggregate number very difficult.

The test system of test [3] is 109QmHtt aggregates. The experiment in a line: TIRF microscopy of mHtt aggregates in Neuro2a cells. The format is cell-based. Conditions: Neuro2a cells expressing 109QmHtt. As for the experimental part:
FIG. 3. Diagrams showing the co-localization of tested bipartite peptides with the 109QmHtt aggregates. Panel A: Structure of TAMRA-labeled 8R10Q used in this study. Panel B: Epifluorescence micrographs of Neuro2a cells expressing 109QmHtt treated with TAMRA-8R10Q (8R10Q) at various time points. Note the co-localization of 8R10Q and 109QmHttGFP aggregates (GFP) from 8-24 hours (arrows). Scale bar: 10 μm. Panel C: TIRF micrographs of the Neuro2a expressing 109QmHtt treated with water or peptides as indicated at various time points. Note the decrease in aggregate size in 8R10Q and 8R15Q-treated cells. Panel D: Quantitation of the size of individual aggregates in Neuro2a at 8 hours (left) and 24 hours (right) after peptide treatment. […] Panel E: Quantitation of the number of aggregates in 20 Neuro2a cells at 12 hours (left) and 24 hours (right) after peptide treatment. Both the 8R10Q and 8R15Q increased the number of aggregates. Statistics performed with one way ANOVA. **p<0.01; ***p<0.001.
To probe into the details of the effect of peptide on the mHtt aggregates, the parameters of the mHtt aggregates were visualized and measured using the Total Internal Reflection Fluorescence (TIRF) microscopy. […] The number of aggregates in 20 cells was also calculated. 8R10Q and 8R15Q increased the number of the aggregates by 4-5 fold (FIG. 3, panel E).

As to “H-RRRRRRRRWDQQQQQQQQQQ-NH2 [Peptide 8R10Q, NH2-(R)8-W-D-(Q)10-CONH2]”, in test [1], the “ratio of the MG132:DMSO 109QmHtt” value was “much higher”. For the same substance, the cortical thickness entry in test [2] (13 week-old R6/2 mice) is reported as “prevented cortical thinning”. In test [2] (R6/2 mice, intranasal), the “loss of neurons in cortex and striatum” value is given as “significantly prevented”. In addition, the “intensity of mHtt aggregates” value in test [2] (cortex and striatum) is listed as “significantly decreased”. In addition, the tau signals entry in test [2] (cortex and striatum of R6/2 mice) is “significantly enhanced”. The “decrease in areas of mHtt aggregates” value in test [2] (cortex and striatum, vs PBS, EM48 immunohistochemistry) is around 60%. Besides, in test [2] (cortex of R6/2 mice), the “numbers of GFAP-positive astrocytes” value is given as “significant decrease” and the “numbers of Iba-1-positive microglia” value is recorded as “significant decrease”. Besides, the “average size of the aggregates” value in test [3] is recorded as 0.3 μm^2.
